{
  "source": "paper PMC11734723",
  "about": "(Science Advances, 2025)",
  "origin": "cited, not measured here",
  "key": {"[1]": {"system": "collagen-induced arthritis (CIA) mouse model", "details": "administered beginning at the time of arthritis induction; cited from earlier work"}, "[2]": {"system": "RANKL-induced osteoclast differentiation", "details": "cited from earlier work"}, "Orai channels": {"system": "Orai channels", "details": "cited from earlier work"}},
  "data": [
    {"smiles": "CCC(=O)Nc1ccc(Cl)c(Cl)c1", "note": "[3,4-dichloropropionanilide]", "values": [
      {"measurement": "effect on arthritis", "setting": "[1]", "value": "reduces arthritis"},
      {"measurement": "inhibition of RANKL-induced osteoclastogenesis", "setting": "[2]; 100 nM", "value": "failed to inhibit"},
      {"measurement": "formation of bone-degrading osteoclasts", "setting": "[2]; in vitro", "value": "reduced"},
      {"measurement": "concentration needed to block RANKL-induced osteoclast differentiation", "setting": "[2]; in vitro, not blocked at concentrations below this", "value": "≥ 10", "unit": "µM"},
      {"measurement": "effect on Orai channels", "setting": "Orai channels", "value": "inhibits"}
    ]}
  ]
}
